Reference: the supplement of paper PMC10307832

Legend:
Assay in all cases: relative viability (nuclei count vs DMSO), 5 days (fraction); higher = more cells survive
[1] = tested on: PC-14
How it was run: (§1)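 Medians of duplicate plates are given as relative viability. That measure is the nuclei count in treated wells divided by the count in vehicle wells. Counts were taken on 4× images of lung cancer cell lines in 1536-well plates, 5 days after pin-tool dosing the day after seeding with one drug alone or a fixed anchor-drug dose plus five library-drug doses (not always all listed) in √10 steps.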

[2] = tested on: NCI-H1915
How it was run: as §1

[3] = tested on: EMC-BAC-2
How it was run: as §1

[4] = tested on: NCI-H2126
How it was run: as §1

[5] = tested on: H3255
How it was run: as §1

[6] = tested on: NCI-H1993
How it was run: as §1

[7] = tested on: NCI-H727
How it was run: as §1

[8] = tested on: LCLC-97TM1
How it was run: as §1

[9] = tested on: EPLC-272H
How it was run: as §1

[10] = tested on: LXF-289
How it was run: as §1

[11] = tested on: NCI-H661
How it was run: as §1

C=C1C(=O)O[C@@H](CCCCCCCC)[C@@H]1C(=O)O [C-75] + CS(=O)(=O)CCNCc1ccc(-c2ccc3ncnc(Nc4ccc(OCc5cccc(F)c5)c(Cl)c4)c3c2)o1 [Lapatinib] (partner 2 µM)
relative viability ([1]; first compound 0.08 µM): 0.316
relative viability ([1]; first compound 0.253 µM): 0.259
relative viability ([1]; first compound 0.8 µM): 0.328
relative viability ([1]; first compound 2.53 µM): 0.243
relative viability ([1]; first compound 8 µM): 0.343
relative viability ([2]; first compound 0.08 µM): 0.952
relative viability ([2]; first compound 0.253 µM): 0.945
relative viability ([2]; first compound 0.8 µM): 0.89
relative viability ([2]; first compound 2.53 µM): 0.917
relative viability ([2]; first compound 8 µM): 0.909
relative viability ([3]; first compound 0.08 µM): 0.897
relative viability ([3]; first compound 0.253 µM): 0.85
relative viability ([3]; first compound 0.8 µM): 0.882
relative viability ([3]; first compound 2.53 µM): 0.721
relative viability ([3]; first compound 8 µM): 0.998
relative viability ([4]; first compound 0.08 µM): 0.774
relative viability ([4]; first compound 0.253 µM): 0.914
relative viability ([4]; first compound 0.8 µM): 0.728
relative viability ([4]; first compound 2.53 µM): 0.62
relative viability ([4]; first compound 8 µM): 0.758
relative viability ([5]; first compound 0.08 µM): 0.277
relative viability ([5]; first compound 0.253 µM): 0.314
relative viability ([5]; first compound 0.8 µM): 0.254
relative viability ([5]; first compound 2.53 µM): 0.21
relative viability ([5]; first compound 8 µM): 0.274
relative viability ([6]; first compound 0.08 µM): 0.796
relative viability ([6]; first compound 0.253 µM): 0.825
relative viability ([6]; first compound 0.8 µM): 0.807
relative viability ([6]; first compound 2.53 µM): 0.763
relative viability ([6]; first compound 8 µM): 0.667
relative viability ([7]; first compound 0.08 µM): 0.881
relative viability ([7]; first compound 0.253 µM): 1.54
relative viability ([7]; first compound 0.8 µM): 0.711
relative viability ([7]; first compound 2.53 µM): 0.841
relative viability ([7]; first compound 8 µM): 1.22
relative viability ([8]; first compound 0.08 µM): 0.684
relative viability ([8]; first compound 0.253 µM): 1.67
relative viability ([8]; first compound 0.8 µM): 0.881
relative viability ([8]; first compound 2.53 µM): 0.555
relative viability ([8]; first compound 8 µM): 0.543
relative viability ([9]; first compound 0.08 µM): 0.974
relative viability ([9]; first compound 0.253 µM): 0.805
relative viability ([9]; first compound 0.8 µM): 1.01
relative viability ([9]; first compound 2.53 µM): 0.592
relative viability ([9]; first compound 8 µM): 0.789
relative viability ([10]; first compound 0.08 µM): 0.842
relative viability ([10]; first compound 0.253 µM): 0.872
relative viability ([10]; first compound 0.8 µM): 0.895
relative viability ([10]; first compound 2.53 µM): 0.925
relative viability ([10]; first compound 8 µM): 0.908
relative viability ([11]; first compound 0.08 µM): 0.51
relative viability ([11]; first compound 0.253 µM): 0.554
relative viability ([11]; first compound 0.8 µM): 0.43
relative viability ([11]; first compound 2.53 µM): 0.396
relative viability ([11]; first compound 8 µM): 0.407
